Patent publication US9995734B2, “Human T cell line assay for evaluating the immunologic identity of glatiramer acetate preparations” (Mylan Inc., priority 2013, dated 2018)

Columns and labels:
[1] = system: Donor 6 GMA-Reactive T-Cell Lines; test: ATP proliferation assay, Donor 6 GMA-reactive T-cell lines; assay type: cell-based, human; conditions: Day 35, GMA Lot 001 and COP 10 μg/mL
[2] = system: Donor 3 COP T-cell lines (165-B6C, 165-C7C, 165-D3C, 165-F3C, 165-F6C); test: MHC DR restriction testing (ATP proliferation with autologous and partially HLA-DR matched APC), Donor 3 COP T-cell lines; assay type: cell-based, human; conditions: 20 μg/mL
Experimental: MHC DR restriction testing of cell lines was carried out by measuring the proliferation response of the cell lines as described above in the presence of an array of APC selected based on the known HLA-DR loci of the original PBMC donor for the cell line tested, including autologous APC (B-LCL). The donors used are described in Table 2.
To define the MHC molecule used to present antigen to GA specific T cell lines, GA specific responses were measured in the presence of autologous APC and in the presence of APC matching one of the T cell donor's HLA-DR alleles. Therefore at least 3 APC were used in each experiment: autologous APC, APC matching DR allele 1 but not allele 2 and a third APC matching allele 2 but not allele 1. In some experiments a fourth APC B-LCL was used. A no antigen negative control was used. APC were inactivated by incubation with 50 ug/mL mitomycin C. Following inactivation, cells were washed three times to remove mitomycin C and suspended in X-VIVO 15 medium at 1×10^6 cells per mL. GA was added to the cell suspension to a final concentration of 20-60 μg/mL. The cells were incubated with antigen for 1 hour at 37° C. to allow antigen uptake and binding. The cell suspension was then centrifuged to pellet the cells and the cell pellet was washed once with medium. APC were adjusted to 2×10^5 cells per mL in X-VIVO 15 medium and added to opaque 96-well plates at 100 μL per well. T-cell suspensions of 2-4×10^5 cells per mL (unless otherwise specified) were added to the 96-well plates at 100 μL per well and the cultures incubated 4 days before measuring cell numbers using CellTiter Glo® (to evaluate proliferation).
Alternatively, APC were not pulsed. Instead, each well contained 10 ug/mL antigen, 50 μl APC and 100 μL of T cells.
After incubating for 4 days at 37° C. (5% CO2), 100 μL were removed from each well, combined with 100 μL CellTiterGlo reagent, and luminescence was measured using a Packard Fusion. Results were expressed in relative light units (RLU).
As described in the Methods, T-cell lines were tested for MHC restriction by measuring proliferation following incubation with APC. Mitomycin-treated autologous APC, and test APC, e.g., from donors having at least one HLA-DR match with the original PBMC donor were employed. The values in the data tables below are in RLU.
(§1) Donor 3 T-cell line 165-B6C was assayed for proliferation, using mitomycin-treated APC from Donors 3, 5, and 6 that had been incubated in the presence or the absence of 20 μg/mL COP. T-cell line 165-B6C had been restimulated six times (not including the initial stimulation) with antigen before the MHC restriction assay was carried out. The data, shown in Table 68 and FIG. 12A, indicate that […] is restricted by HLA-DRβ1*11.
as §1, with “165-C7C” for “165-B6C”, “five” for “six”, “69” for “68”, “12B,” for “12A,”
T-cell line 165-D3C had been restimulated six times (not including the initial stimulation) with antigen before the MHC restriction assay was carried out. The data, shown in Table 70 and FIG. 13A, indicate that 165-D3Cis restricted by HLA-DRβ1*1501.
T-cell line 165-F3C had been restimulated eight times (not including the initial stimulation) with antigen before the MHC restriction assay was carried out. The data, shown in Table 71 and FIG. 13B, indicate that 165-F3C is restricted by HLA-DRβ1*11.
Donor 3 T-cell line 165-F6C was assayed for proliferation, using mitomycin-treated APC from Donors 3, 5, and 6 that had been incubated in the presence or the absence of 20 μg/mL COP. […]

glatiramer acetate [COP]
ATP proliferation assay ([1]; Cell line 224-B6-001): 78357 RLU
ATP proliferation assay ([1]; Cell line 224-B7-001): 20586 RLU
ATP proliferation assay ([1]; Cell line 224-B11-001): 27861 RLU
ATP proliferation assay ([1]; Cell line 224-C4-001): 52771 RLU
ATP proliferation assay ([1]; Cell line 224-C11-001): 87933 RLU
ATP proliferation assay ([1]; Cell line 224-D2-001): 26027 RLU
ATP proliferation assay ([1]; Cell line 224-D6-001): 68767 RLU
ATP proliferation assay ([1]; Cell line 224-E2-001): 233094 RLU
ATP proliferation assay ([1]; Cell line 224-E7-001): 137556 RLU
ATP proliferation assay ([1]; Cell line 224-F4-001): 114667 RLU
ATP proliferation assay ([1]; Cell line 224-G2-001): 227257 RLU
ATP proliferation assay ([1]; Cell line 224-G10-001): 229933 RLU
ATP proliferation assay ([1]; Cell line 224-G11-001): 91466 RLU

glatiramer acetate [GMA]
Proliferation with antigen-incubated APC ([2]; T-cell line 165-B6C, B-LCL Donor 3 (Autologous) DRβ1*1501/DRβ1*11): 2237 RLU
Proliferation with antigen-incubated APC ([2]; T-cell line 165-B6C, B-LCL Donor 5 DRβ1*01/DRβ1*11): 8944 RLU
Proliferation with antigen-incubated APC ([2]; T-cell line 165-B6C, B-LCL Donor 6 DRβ1*1501/DRβ1*13): 322 RLU
Proliferation with antigen-incubated APC ([2]; T-cell line 165-C7C, B-LCL Donor 3 (Autologous) DRβ1*1501/DRβ1*11): 13714 RLU
Proliferation with antigen-incubated APC ([2]; T-cell line 165-C7C, B-LCL Donor 5 DRβ1*01/DRβ1*11): 94535 RLU
Proliferation with antigen-incubated APC ([2]; T-cell line 165-C7C, B-LCL Donor 6 DRβ1*1501/DRβ1*13): 1189 RLU
Proliferation with antigen-incubated APC ([2]; T-cell line 165-D3C, B-LCL Donor 3 (Autologous) DRβ1*1501/DRβ1*11): 106840 RLU
Proliferation with antigen-incubated APC ([2]; T-cell line 165-D3C, B-LCL Donor 5 DRβ1*01/DRβ1*11): 12173 RLU
Proliferation with antigen-incubated APC ([2]; T-cell line 165-D3C, B-LCL Donor 7 DRβ1*1501/DRβ1*03): 149506 RLU
Proliferation with antigen-incubated APC ([2]; T-cell line 165-F3C, B-LCL Donor 3 (Autologous) DRβ1*1501/DRβ1*11): 45559 RLU
Proliferation with antigen-incubated APC ([2]; T-cell line 165-F3C, B-LCL Donor 5 DRβ1*01/DRβ1*11): 39565 RLU
Proliferation with antigen-incubated APC ([2]; T-cell line 165-F3C, B-LCL Donor 6 DRβ1*1501/DRβ1*3): 7869 RLU
Proliferation with antigen-incubated APC ([2]; T-cell line 165-F6C, B-LCL Donor 3 (Autologous) DRβ1*1501/DRβ1*11): 12562 RLU
Proliferation with antigen-incubated APC ([2]; T-cell line 165-F6C, B-LCL Donor 5 DRβ1*01/DRβ1*11): 3142 RLU
Proliferation with antigen-incubated APC ([2]; T-cell line 165-F6C, B-LCL Donor 6 DRβ1*1501/DRβ1*13): 30293 RLU
